# Experimental data from PubChem BioAssay AID220 (DTP/NCI, 2004).
# Several values for one entry are separate records, joined by “and”; a condition that tells them apart may be missing. Identical values can stand only once. Results filed as inconclusive are left out.
# Test system: CD8F1 mice, subcutaneous mammary adenocarcinoma, T/C%
# Test: NCI In Vivo Anticancer Drug Screen. Data for tumor model Mammary Adenocarcinoma CD8F1 (subcutaneous) in CD8F1
# Conditions: higher = larger tumour
# Outline: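 Antitumor activity is assessed in transplantable-tumor mice by comparing the treated group with a vehicle-treated control group. Survival or tumor size serves as the measure, reported as T divided by C.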
# [1] = endpoint: median tumor weight (est.), dose: 12.5 mg/kg/injection, schedule: Q07DX005 (ip), vehicle: saline
# [2] = endpoint: median tumor weight (est.), dose: 25.0 mg/kg/injection, schedule: Q07DX005 (ip), vehicle: saline
# [3] = endpoint: median tumor weight (est.), dose: 50.0 mg/kg/injection, schedule: Q07DX005 (ip), vehicle: saline
# [4] = endpoint: median tumor weight (est.), dose: 100.0 mg/kg/injection, schedule: Q07DX005 (ip), vehicle: saline
# [5] = endpoint: median tumor weight change, dose: 62.5 mg/kg/injection, schedule: Q01DX001 (ip), vehicle: saline with Tween-80
# [6] = endpoint: median tumor weight change, dose: 125.0 mg/kg/injection, schedule: Q01DX001 (ip), vehicle: Klucel (hydroxypropylcellulose) (HPC)
# [7] = endpoint: median tumor weight change, dose: 250.0 mg/kg/injection, schedule: Q01DX001 (ip), vehicle: Klucel (hydroxypropylcellulose) (HPC)
# [8] = endpoint: median tumor weight change, dose: 250.0 mg/kg/injection, schedule: Q01DX001 (ip), vehicle: saline with Tween-80
# [9] = endpoint: median tumor weight change, dose: 500.0 mg/kg/injection, schedule: Q01DX001 (ip), vehicle: Klucel (hydroxypropylcellulose) (HPC)
# [10] = endpoint: median tumor weight change, dose: 500.0 mg/kg/injection, schedule: Q01DX001 (ip), vehicle: saline with Tween-80
# [11] = endpoint: median tumor weight change, dose: 1000.0 mg/kg/injection, schedule: Q01DX001 (ip), vehicle: saline with Tween-80
# [12] = endpoint: median tumor weight (est.), dose: 1.25 mg/kg/injection, schedule: Q07DX005 (ip), vehicle: saline
# [13] = endpoint: median tumor weight (est.), dose: 2.5 mg/kg/injection, schedule: Q07DX005 (ip), vehicle: saline
smiles,measurement,setting,value
COc1cccc2c1C(=O)c1c(O)c3c(c(O)c1C2=O)C[C@@](O)(C(=O)CO)C[C@@H]3OC1CC(N(C)C)C(O)C(C)O1 (stereo partly specified),T/C,"endpoint: median tumor weight (est.), dose: 2.67 mg/kg/injection, schedule: Q07DX005 (ip), vehicle: water",88 % of control
COC12C(COC(=O)NCCO)C3=C(C(=O)C(C)=C(N)C3=O)N1CC1NC12 (stereo unspecified),T/C,"endpoint: median tumor weight change, dose: 12.5 mg/kg/injection, schedule: Q01DX001 (ip), vehicle: Klucel (hydroxypropylcellulose) (HPC)",77 % of control
same,T/C,"endpoint: median tumor weight change, dose: 25.0 mg/kg/injection, schedule: Q01DX001 (ip), vehicle: Klucel (hydroxypropylcellulose) (HPC)",78 % of control
same,T/C,"endpoint: median tumor weight change, dose: 50.0 mg/kg/injection, schedule: Q01DX001 (ip), vehicle: Klucel (hydroxypropylcellulose) (HPC)",33 % of control
same,T/C,"endpoint: median tumor weight change, dose: 100.0 mg/kg/injection, schedule: Q01DX001 (ip), vehicle: Klucel (hydroxypropylcellulose) (HPC)",-64 % of control
C1CC[N-]CC1.C1CC[N-]CC1.C1CC[N-]CC1.[Cl][Rh]([Cl])[Cl],T/C,"endpoint: median tumor weight (est.), dose: 6.25 mg/kg/injection, schedule: Q07DX005 (ip), vehicle: saline",112 % of control
same,T/C,"endpoint: median tumor weight (est.), dose: 8.0 mg/kg/injection, schedule: Q07DX005 (ip), vehicle: saline",118 % of control
same,T/C,[1],100 % of control
same,T/C,[2],73 % of control
same,T/C,"endpoint: median tumor weight (est.), dose: 32.0 mg/kg/injection, schedule: Q07DX005 (ip), vehicle: saline",61 % of control
same,T/C,[3],84 % of control
same,T/C,"endpoint: median tumor weight (est.), dose: 64.0 mg/kg/injection, schedule: Q07DX005 (ip), vehicle: saline",47 % of control
same,T/C,[4],45 % of control
COc1cc(C(C)(C)C)cc(OC)c1C(O)(c1c(OC)cc(C(C)(C)C)cc1OC)c1c(OC)cc(C(C)(C)C)cc1OC,T/C,[5],102 % of control
same,T/C,[6],98 % of control
same,T/C,[7],62 % of control
same,T/C,[8],48 % of control and 70 % of control
same,T/C,[9],67 % of control
same,T/C,[10],37 % of control and 46 % of control
same,T/C,[11],17 % of control
c1ccc([P+](c2ccccc2)(c2ccccc2)c2ccccc2)cc1,T/C,"endpoint: median tumor weight (est.), dose: 0.31 mg/kg/injection, schedule: Q07DX004 (ip), vehicle: saline",218 % of control and 86 % of control
same,T/C,"endpoint: median tumor weight (est.), dose: 0.31 mg/kg/injection, schedule: Q07DX005 (ip), vehicle: saline",98 % of control
same,T/C,"endpoint: median tumor weight (est.), dose: 0.62 mg/kg/injection, schedule: Q04DX005 (ip), vehicle: saline",50 % of control and 67 % of control
same,T/C,"endpoint: median tumor weight (est.), dose: 0.62 mg/kg/injection, schedule: Q07DX005 (ip), vehicle: saline",121 % of control
same,T/C,"endpoint: median tumor weight (est.), dose: 1.25 mg/kg/injection, schedule: Q04DX005 (ip), vehicle: saline",100 % of control
same,T/C,"endpoint: median tumor weight (est.), dose: 1.25 mg/kg/injection, schedule: Q07DX004 (ip), vehicle: saline",124 % of control
same,T/C,[12],62 % of control
same,T/C,"endpoint: median tumor weight (est.), dose: 2.5 mg/kg/injection, schedule: Q04DX005 (ip), vehicle: saline",73 % of control and 76 % of control
same,T/C,[13],63 % of control
C=C(Cl)C(=NC(C)(C)C)Nc1ccccc1C,T/C,"endpoint: median tumor weight change, dose: 31.25 mg/kg/injection, schedule: Q01DX001 (ip), vehicle: Klucel (hydroxypropylcellulose) (HPC)",86 % of control
same,T/C,"endpoint: median tumor weight change, dose: 62.5 mg/kg/injection, schedule: Q01DX001 (ip), vehicle: Klucel (hydroxypropylcellulose) (HPC)",85 % of control
c1cc[c]([Sn][c]2ccccc2)cc1,T/C,[12],101 % of control
same,T/C,[13],91 % of control
same,T/C,"endpoint: median tumor weight (est.), dose: 5.0 mg/kg/injection, schedule: Q07DX005 (ip), vehicle: saline",86 % of control
same,T/C,"endpoint: median tumor weight (est.), dose: 10.0 mg/kg/injection, schedule: Q07DX005 (ip), vehicle: saline",68 % of control
same,T/C,"endpoint: median tumor weight (est.), dose: 20.0 mg/kg/injection, schedule: Q07DX005 (ip), vehicle: saline",50 % of control
CCC(CC)COC(=O)c1ccccc1C(=O)OCC(CC)CC,T/C,"endpoint: median tumor weight (est.), dose: 25.0 mg/kg/injection, schedule: Q07DX005 (ip), vehicle: saline with Tween-80",83 % of control
same,T/C,"endpoint: median tumor weight (est.), dose: 200.0 mg/kg/injection, schedule: Q07DX005 (ip), vehicle: saline with Tween-80",65 % of control
same,T/C,"endpoint: median tumor weight (est.), dose: 400.0 mg/kg/injection, schedule: Q07DX005 (ip), vehicle: saline with Tween-80",75 % of control
same,T/C,"endpoint: median tumor weight (est.), dose: 800.0 mg/kg/injection, schedule: Q07DX005 (ip), vehicle: saline with Tween-80",64 % of control
[N-]=[N+]=C1N=CN=C1c1ncn[nH]1,T/C,"endpoint: median tumor weight (est.), dose: 3.12 mg/kg/injection, schedule: Q07DX005 (ip), vehicle: carboxymethylcellulose (CMC)",91 % of control
same,T/C,"endpoint: median tumor weight (est.), dose: 6.25 mg/kg/injection, schedule: Q07DX005 (ip), vehicle: carboxymethylcellulose (CMC)",95 % of control
CONc1ccn(C2OC(CO)C(O)C2O)c(=O)n1 (stereo unspecified),T/C,"endpoint: median tumor weight change, dose: 125.0 mg/kg/injection, schedule: Q01DX001 (ip), vehicle: saline",87 % of control
same,T/C,"endpoint: median tumor weight change, dose: 250.0 mg/kg/injection, schedule: Q01DX001 (ip), vehicle: saline",103 % of control
Oc1c(Cl)cc(Cl)cc1C1N2CCCCC2C2c3cccn3-c3ccccc3N21 (stereo unspecified),T/C,"endpoint: median tumor weight change, dose: 125.0 mg/kg/injection, schedule: Q01DX001 (ip), vehicle: saline with Tween-80",69 % of control
same,T/C,[8],85 % of control
same,T/C,[10],58 % of control
same,T/C,[11],68 % of control
same,T/C,"endpoint: median tumor weight change, dose: 2000.0 mg/kg/injection, schedule: Q01DX001 (ip), vehicle: saline with Tween-80",79 % of control
NC(=O)/C=C/c1c[nH]c2nccnc12,T/C,"endpoint: median tumor weight change, dose: 31.25 mg/kg/injection, schedule: Q01DX001 (ip), vehicle: water",124 % of control
same,T/C,"endpoint: median tumor weight change, dose: 62.5 mg/kg/injection, schedule: Q01DX001 (ip), vehicle: water",73 % of control
same,T/C,"endpoint: median tumor weight change, dose: 125.0 mg/kg/injection, schedule: Q01DX001 (ip), vehicle: water",58 % of control
c1ccc([C@H]2CN3CCSC3=N2)cc1,T/C,"endpoint: mean tumor weight, dose: 12.5 mg/kg/injection, schedule: Q07DX005 (ip), vehicle: saline",107 % of control
same,T/C,"endpoint: mean tumor weight, dose: 25.0 mg/kg/injection, schedule: Q07DX005 (ip), vehicle: saline",105 % of control
same,T/C,[1],92 % of control
N/C=N/O,T/C,[2],109 % of control
same,T/C,[3],181 % of control
same,T/C,[4],164 % of control
same,T/C,"endpoint: median tumor weight (est.), dose: 200.0 mg/kg/injection, schedule: Q07DX005 (ip), vehicle: saline",105 % of control
same,T/C,"endpoint: median tumor weight (est.), dose: 400.0 mg/kg/injection, schedule: Q07DX005 (ip), vehicle: saline",97 % of control
same,T/C,"endpoint: median tumor weight (est.), dose: 600.0 mg/kg/injection, schedule: Q07DX005 (ip), vehicle: saline",78 % of control
Nc1nc2n[nH]nc2c(=O)[nH]1,T/C,"endpoint: median tumor weight change, dose: 250.0 mg/kg/injection, schedule: Q01DX001 (ip), vehicle: suspension in saline",73 % of control
same,T/C,"endpoint: median tumor weight change, dose: 500.0 mg/kg/injection, schedule: Q01DX001 (ip), vehicle: suspension in saline",45 % of control
Cc1cc(O)c2c(c1O)C(=O)C13C(=C2O)C(=O)C2C(O)C1C1C(O)C3C(=O)C3=C(O)c4c(O)cc(C)c(O)c4C(=O)C321 (stereo unspecified),T/C,"endpoint: median tumor weight change, dose: 15.62 mg/kg/injection, schedule: Q01DX001 (ip), vehicle: saline with Tween-80",38 % of control
same,T/C,"endpoint: median tumor weight change, dose: 31.25 mg/kg/injection, schedule: Q01DX001 (ip), vehicle: saline with Tween-80",100 % of control
C[Si](C)(C)OSc1ccccc1[N+](=O)[O-],T/C,[6],158 % of control
same,T/C,[7],120 % of control
same,T/C,[9],93 % of control
same,T/C,"endpoint: median tumor weight change, dose: 1000.0 mg/kg/injection, schedule: Q01DX001 (ip), vehicle: Klucel (hydroxypropylcellulose) (HPC)",120 % of control
same,T/C,"endpoint: median tumor weight change, dose: 2000.0 mg/kg/injection, schedule: Q01DX001 (ip), vehicle: Klucel (hydroxypropylcellulose) (HPC)",97 % of control
O=C1N=C(Oc2ccccc2)SC1=O,T/C,[5],43 % of control
same,T/C,"endpoint: median tumor weight change, dose: 125.0 mg/kg/injection, schedule: Q01DX001 (ip), vehicle: DMSO",66 % of control
CN1N=C(N)c2cn(C3OC(COP(=O)(O)O)C(O)C3O)c3ncnc1c23 (stereo unspecified),T/C,"endpoint: median tumor weight (est.), dose: 9.37 mg/kg/injection, schedule: Q07DX005 (ip), vehicle: other",46 % of control
same,T/C,"endpoint: median tumor weight (est.), dose: 12.5 mg/kg/injection, schedule: Q07DX005 (ip), vehicle: water",121 % of control
same,T/C,"endpoint: median tumor weight (est.), dose: 18.75 mg/kg/injection, schedule: Q07DX005 (ip), vehicle: other",52 % of control
same,T/C,"endpoint: median tumor weight (est.), dose: 25.0 mg/kg/injection, schedule: Q07DX005 (ip), vehicle: water",54 % of control
same,T/C,"endpoint: median tumor weight (est.), dose: 37.5 mg/kg/injection, schedule: Q07DX005 (ip), vehicle: other",25 % of control
same,T/C,"endpoint: median tumor weight (est.), dose: 50.0 mg/kg/injection, schedule: Q07DX005 (ip), vehicle: water",25 % of control
same,T/C,"endpoint: median tumor weight (est.), dose: 75.0 mg/kg/injection, schedule: Q07DX005 (ip), vehicle: other",16 % of control
same,T/C,"endpoint: median tumor weight (est.), dose: 100.0 mg/kg/injection, schedule: Q07DX005 (ip), vehicle: water",7 % of control
same,T/C,"endpoint: median tumor weight (est.), dose: 150.0 mg/kg/injection, schedule: Q07DX005 (ip), vehicle: other",5 % of control
